From paper PMC5942373 (Beilstein Journal of Organic Chemistry, 2018)
“Also recorded” adds a separate entry of the source. Where two headings read alike, the source gives them in different places. Each block holds one compound with its values, some of them ahead of it. Positions of bridges follow the written chain, without caps; N, C: chain ends. Residues, ends and D or L forms follow the SMILES beside them. Chains are numbered I, II in the order given. *: point of attachment. Daunorubicin(13-NOCH2CO) = COc1cccc2c1C(=O)c1c(O)c3c(c(O)c1C2=O)C[C@@](O)(C(C)=NOCC(=O)*)C[C@@H]3O[C@H]1C[C@H](N)[C@H](O)[C@H](C)O1

Assays:
[1] = 10% FBS (fetal bovine serum) containing complete cell culture medium (DMEM CM); settings: 37 °C, up to 72 h
[2] = Rat liver lysosomal homogenate; settings: 37 °C, up to 72 h
[3] = system: HT-1080 cells; assay: Cellular uptake by flow cytometry; type: cell-based, human; settings: 10 μM, 6 h, 37 °C, FBS containing medium; flow cytometry (Dau fluorescence)
From the text: (§1) Daunomycin is fluorescent therefore the cellular uptake of Dau containing conjugates can be followed by flow cytometry (Figure 2). The new conjugates were taken up by HT-29 cells in a higher amount than by HT-1080 cells. […] The low cytostatic/cytotoxic effects of conjugate 5 can be explained by the results of cellular uptake study.
(§2) Figure 2 (A) HT1080 and (B) HT-29 cells. Uptake of conjugate 1 (light green); 2 (red); 3 (light blue); 4 (pink); 5 (green); K (yellow). Empty control with purple color.
(§3) Analogous to the description in [17], prior to the treatment, HT-1080 and HT-29 cells were incubated overnight in cell culture medium (see above) followed by seeding at a 250.000 cells/well density. Peptide–drug conjugates were dissolved in FBS containing cell culture medium and added to the cells at 10 μM final concentration. After 6 h incubation at 37 °C the supernatant was removed, cells were washed with PBS and trypsinised with 0.1% trypsin (Gibco® by Life Technologies) for 10 minutes. Trypsinization was terminated with FBS containing medium, then cells were washed and suspended in serum free medium. For live/dead detection we used Zombie Violet reagent (Biolegend, San Diego CA). Samples were detected and analyzed by using an Attitude® Acoustic Focusing Cytometer (ThermoFischer Scientific).

[4] = system: HT-29 cells; assay: Cellular uptake by flow cytometry; type: cell-based, human; settings: 10 μM, 6 h, 37 °C; for Cellular uptake by HT-29 cells: FBS containing medium, flow cytometry (Dau fluorescence); for Cellular uptake in HT-29 compared with HT-1080 cells: flow cytometry, comparison of the two cell lines
From the text: as §1, §2, §3

[5] = Chemostability (Asn deamidation) of cyclic NGR peptide-daunomycin conjugates in complete cell culture medium; type: physicochemical; settings: DMEM CM (10% FBS complete medium), 2% DMSO, 1 mg/mL, 37 °C, HPLC-MS, area under the curve
Method: The chemostability of cyclic NGR peptide–drug conjugates was studied under the treatment conditions used for the in vitro cytotoxicity experiments. Samples were taken at 0 min, 6 h and 72 h. The deamidation rate was evaluated by HPLC–MS. […] After 6 h, moderate rearrangement was observed which increased in time. However, 54–58% of the parent cyclic NGR conjugates were still intact after 72 h. […] Except deamidation no other decomposition could be observed during this study.
As described in [17] to check the chemical stability each of the drug conjugates were dissolved in DMSO (2% of the final volume), following the addition of 10% FBS (fetal bovine serum) containing complete cell culture medium (DMEM CM) up to the 1 mg/mL final concentration. Each conjugate was allowed to incubate at 37 °C. Samples were analyzed at experiment time of 0 h, 6 h and 72 h, respectively, and components were purified with Amicon Ultra Centrifugal Filters (cut off 10K Millipore). The membranes were washed with eluent A (HPLC), followed by 3 × 15 min centrifugation at 13000 rpm. The last step is the washing with eluent B (HPLC) 1 × 15 min, followed by lyophilization and concentration of the samples.

[6] = system: CD13- HT-29 human colon adenocarcinoma cells; assay: In vitro cytostatic/cytotoxic effect, PrestoBlue viability; type: cell-based
From the text: (§4) Similarly to our previous study the antitumor effects of conjugates were examined in vitro on CD13+ HT-1080 human fibrosarcoma and on CD13− HT-29 human colon adenocarcinoma cells. Both cell types are integrin receptor positive. The effect of the new drug conjugates was compared with the toxicity of free Dau and our lead compound Dau=Aoa-GFLGK(c[KNGRE]-GG)-NH2 (K). The bioconjugates enter cancer cells most likely by receptor-mediated endocytosis (at least at lower micromolar concentration) followed by the release of the active metabolite Dau=Aoa-Gly-OH by lysosomal degradation. In contrast, free Dau enters the cells in an unspecific manner which might explain the lower antitumor effect of conjugates in comparison with the free drug. In this experiment we measured the cytostatic effect (6 h treatment and further 66 h incubation after washing out the compounds) and the cytotoxic effect (72 h treatment). The results are summarized in (Table 3). […] It seems that the replacement of Lys by the hydrophilic amino acid Ser is not favorite. However, the incorporation of hydrophobic amino acids was well accepted. The conjugate with bulky side chain in this position (Leu) had higher IC50 values that might be explained by sterical hindrance. […] The Nle containing conjugate presented similar activity on HT-1080 and higher activity on HT-29 cells compared to the control conjugate. It is worth mentioning that Nle has a linear hydrocarbon side chain with the same length as Lys, the amino functional group missing. To further characterize the biological activity of the conjugates, their lysosomal degradation and cellular uptake were studied.
(§5) HT-1080 was maintained in DMEM while HT-29 cells in RPMI (Sigma-Aldrich), respectively, supplemented with 10% FBS, 5 mmol/L glutamine, and 50 units/mL penicillin and streptomycin (Life Technologies). As described in [17] cells were seeded in 5000 cells/well density in 100 μL medium followed by an overnight incubation. The next day 100 μL of serially diluted drugs were added to the cells. For the measurements of cytostatic effect, drug containing medium was gently removed from the plates after 6 h incubation, fresh medium was added to each wells, and the plates were further incubated for additional 66 h (72 h in total). In the case of cytotoxicity measurements, the drug containing medium was on the cells for the full period of the 72 h assay. At 72 h, supernatant was removed from the cells, and viability was assessed by the PrestoBlue® reagent (Life Technologies), which was diluted in PBS to reach the concentration given in the manufacturer’s instruction.

[7] = system: CD13+ HT-1080 human fibrosarcoma cells; assay: as above; type: cell-based
From the text: as §4, §5

Compound: COc1cccc2c1C(=O)c1c(O)c3c(c(O)c1C2=O)C[C@@](O)(C(C)=NOCC(=O)NCC(=O)N[C@@H](Cc1ccccc1)C(=O)N[C@@H](CC(C)C)C(=O)NCC(=O)N[C@@H](CCCCNC(=O)CNC(=O)CNC(=O)[C@@H]1CCC(=O)N2CCC[C@H]2C(=O)N[C@@H](CC(N)=O)C(=O)NCC(=O)N[C@@H](CCCNC(=N)N)C(=O)N1)C(N)=O)C[C@@H]3O[C@H]1C[C@H](N)[C@H](O)[C@H](C)O1 [compound 4, Dau=Aoa-GFLGK(c[CONH-PNGRE]-GG)-NH2] (I: PNGREGG / II: {Daunorubicin(13-NOCH2CO)}-GFLGK-NH2; amide I:C-II:5; lactam I:N-I:5)
Cellular uptake by HT-1080 cells [3]: highest uptake
Cellular uptake by HT-29 cells [4]: highest uptake
Cellular uptake in HT-29 compared with HT-1080 cells [4]: significantly higher accumulation in HT-29 than in HT-1080 cells
Ratio of Asn-/Asp-/isoAsp-derivatives: DGR ([5]; 6 h): 14%
Ratio of Asn-/Asp-/isoAsp-derivatives: isoDGR ([5]; 6 h): 13%
Ratio of Asn-/Asp-/isoAsp-derivatives: NGR ([5]; 6 h, % printed in b14 only): 73%
Ratio of Asn-/Asp-/isoAsp-derivatives: DGR ([5]; 72 h): 46%
Ratio of Asn-/Asp-/isoAsp-derivatives: NGR ([5]; 72 h): 19%
Ratio of Asn-/Asp-/isoAsp-derivatives: isoDGR ([5]; 72 h): 35%

Compound: COc1cccc2c1C(=O)c1c(O)c3c(c(O)c1C2=O)C[C@@](O)(C(C)=NOCC(=O)NCC(=O)N[C@@H](Cc1ccccc1)C(=O)N[C@@H](CC(C)C)C(=O)NCC(=O)N[C@@H](CCCCNC(=O)CNC(=O)CNC(=O)[C@@H]1CCC(=O)N[C@@H](CO)C(=O)N[C@@H](CC(N)=O)C(=O)NCC(=O)N[C@@H](CCCNC(=N)N)C(=O)N1)C(N)=O)C[C@@H]3O[C@H]1C[C@H](N)[C@H](O)[C@H](C)O1 [compound 5, Dau=Aoa-GFLGK(c[CONH-SNGRE]-GG)-NH2]
Cellular uptake by HT-1080 cells [3]: did not enter
Cellular uptake by HT-29 cells [4]: slightly higher cellular uptake

Compound: COc1cccc2c1C(=O)c1c(O)c3c(c(O)c1C2=O)C[C@@](O)(C(C)=NOCC(=O)NCC(=O)N[C@@H](Cc1ccccc1)C(=O)N[C@@H](CC(C)C)C(=O)NCC(=O)N[C@@H](CCCCNC(=O)CNC(=O)CNC(=O)[C@@H]1CCC(=O)N[C@@H](CC(C)C)C(=O)N[C@@H](CC(N)=O)C(=O)NCC(=O)N[C@@H](CCCNC(=N)N)C(=O)N1)C(N)=O)C[C@@H]3O[C@H]1C[C@H](N)[C@H](O)[C@H](C)O1 [compound 2, Dau=Aoa-GFLGK(c[CONH-LNGRE]-GG)-NH2]
Cellular uptake in HT-29 compared with HT-1080 cells [4]: significantly higher accumulation in HT-29 than in HT-1080 cells

Compound: COc1cccc2c1C(=O)c1c(O)c3c(c(O)c1C2=O)C[C@@](O)(C(C)=O)C[C@@H]3O[C@H]1C[C@H](N)[C@H](O)[C@H](C)O1 [Daunomycin]
IC50 ([6]; HT-29, 72 h, read-out: HT-29 (72 h) IC50): 100 ± 100 nM
IC50 ([6]; HT-29, read-out: HT-29 (6 h) IC50): 300 ± 200 nM
IC50 ([7]; HT-1080, 72 h, read-out: HT-1080 (72 h) IC50): 500 ± 200 nM
IC50 ([7]; HT-1080, read-out: HT-1080 (6 h) IC50): 1400 ± 600 nM

The next lines start with the values.

fragment found [1]: isoDGR, 6 h; also recorded: DGR, 72 h
cleaved bond [2]: Gly-Phe, major, 6 h
Compound: Dau=Aoa-GFLGK(c[CONH-LNGRE]-GG)-NH2

fragment found [1]: isoDGR, 6 h; also recorded: DGR, 72 h
cleaved bond [2]: Gly-Phe, major, 6 h
Compound: Dau=Aoa-GFLGK(c[CONH-ANGRE]-GG)-NH2

fragment found [1]: isoDGR, 6 h; also recorded: DGR, 6 h
cleaved bond [2]: Gly-Phe, major, 6 h
Compound: Dau=Aoa-GFLGK(c[CONH-PNGRE]-GG)-NH2

fragment found [1]: DGR, 72 h; also recorded: isoDGR, 6 h
cleaved bond [2]: Gly-Phe, major, 6 h
Compound: Dau=Aoa-GFLGK(c[CONH-SNGRE]-GG)-NH2

fragment found [1]: isoDGR, 6 h; also recorded: DGR, 6 h
cleaved bond [2]: Gly-Phe, major, 6 h
Compound: Dau=Aoa-GFLGK(c[CONH-NleNGRE]-GG)-NH2

not cleaved [1]: 100% NGR form at 72 h
Compound: Dau=Aoa-GFLGK(c[CONH-KNGRE]-GG)-NH2
